Source: US10683290B2, “Tricyclic compounds as anticancer agents” (BRISTOL-MYERS SQUIBB COMPANY, priority 2015, dated 2020)

The compounds below were run against BRD4 (Homo sapiens, UniProt O60885) (assay: biochemical). Details: FRET BRD4 IC50 (nM), one of the FRET assays described.
Assay type: binding

SMILES	IC50 [nM]
Cc1nnn(C)c1-c1ccc2c3ncc(C(C)(C)O)cc3n([C@H](c3ccccc3F)C3CCOCC3)c2c1 [Example 9, 2-[7-(dimethyl-1H-1,2,3-triazol-5-yl)-5-[(S)-(2-fluorophenyl)(oxan-4-yl)methyl]-5H-pyrido[3,2-b]indol-3-yl]propan-2-ol]	< 5

Same assay, conditions: one of the FRET assays described; read-out: FRET BRD4 IC50

SMILES	IC50 [nM]
[2H]C([2H])([2H])c1nnn(C)c1-c1ccc2c3ncc(C(C)(C)O)cc3n(C(c3ncccc3F)C3CCOCC3)c2c1F (single isomer, unassigned) [Example 85, 2-{6-Fluoro-5-[(3-fluoropyridin-2-yl)(oxan-4-yl)methyl]-7-[4-(^2H3)methyl-1-methyl-1H-1,2,3-triazol-5-yl]-5H-pyrido[3,2-b]indol-3-yl}propan-2-ol]	< 5
Cc1ccc2c(n1)c1c(C(N)=O)cc(-c3c(C)noc3C)cc1n2Cc1ccccc1 [Example 1, 5-Benzyl-7-(dimethyl-1,2-oxazol-4-yl)-2-methyl-5H-pyrido[3,2-b]indole-9-carboxamide]	< 1500
Cc1ccc2c(n1)c1ccc(-c3c(C)noc3C)cc1n2Cc1ccccc1 [Example 2, 4-{5-Benzyl-2-methyl-5H-pyrido[3,2-b]indol-7-yl}-3,5-dimethyl-1,2-oxazole]	< 1500
Cc1nnn(C)c1-c1ccc2c3ncc(C(C)(C)O)cc3n([C@H](c3ccc(F)cc3)C3CCOCC3)c2c1 [Example 3, 2-[7-(Dimethyl-1H-1,2,3-triazol-5-yl)-5-[(S)-(4-fluorophenyl)(oxan-4-yl)methyl]-5H-pyrido[3,2-b]indol-3-yl]propan-2-ol]	< 1
Cc1nnn(C)c1-c1ccc2c3ncc(C(C)(C)O)cc3n(C(CCC(F)(F)F)CCC(F)(F)F)c2c1 [Example 4, 2-[7-(dimethyl-1H-1,2,3-triazol-5-yl)-5-(1,1,1,7,7,7-hexafluoroheptan-4-yl)-5H-pyrido[3,2-b]indol-3-yl]propan-2-ol]	< 5
CCCC(CCC)n1c2cc(-c3c(C)nnn3C)ccc2c2ncc(C(C)(C)O)cc21 [Example 5, 2-[7-(dimethyl-1H-1,2,3-triazol-5-yl)-5-(heptan-4-yl)-5H-pyrido[3,2-b]indol-3-yl]propan-2-ol]	< 5
Cc1nnn(C)c1-c1ccc2c3ncc(C(C)(C)O)cc3n([C@H](c3ccccc3)C3CCOCC3)c2c1 [Example 8, 2-[7-(dimethyl-1H-1,2,3-triazol-5-yl)-5-[(S)-oxan-4-yl(phenyl)methyl]-5H-pyrido[3,2-b]indol-3-yl]propan-2-ol]	< 1
Cc1nnn(C)c1-c1cc(F)c2c3ncc(C(C)(C)O)cc3n(C(CCC(F)(F)F)CCC(F)(F)F)c2c1 [Example 10, 2-[7-(Dimethyl-1H-1,2,3-triazol-5-yl)-9-fluoro-5-(1,1,1,7,7,7-hexafluoroheptan-4-yl)-5H-pyrido[3,2-b]indol-3-yl]propan-2-ol]	< 5
Cc1nnn(C)c1-c1cc(F)c2c3ncc(C(C)(C)O)cc3n([C@H](c3ccccc3)C3CCOCC3)c2c1 [Example 11, 2-[7-(Dimethyl-1H-1,2,3-triazol-5-yl)-9-fluoro-5-[(S)-oxan-4-yl(phenyl)methyl]-5H-pyrido[3,2-b]indol-3-yl]propan-2-ol]	< 1
Cc1nnn(C)c1-c1cc(Cl)c2c3ncc(C(C)(C)O)cc3n(C(CCC(F)(F)F)CCC(F)(F)F)c2c1 [Example 12, 2-[9-Chloro-7-(dimethyl-1H-1,2,3-triazol-5-yl)-5-(1,1,1,7,7,7-hexafluoroheptan-4-yl)-5H-pyrido[3,2-b]indol-3-yl]propan-2-ol]	< 5
Cc1nnn(C)c1-c1cc(Cl)c2c3ncc(C(C)(C)O)cc3n([C@H](c3ccccc3)C3CCOCC3)c2c1 [Example 13, 2-[9-Chloro-7-(dimethyl-1H-1,2,3-triazol-5-yl)-5-[(S)-oxan-4-yl(phenyl)methyl]-5H-pyrido[3,2-b]indol-3-yl]propan-2-ol]	< 1
Cc1noc(C)c1-c1ccc2c3ncc(C(C)(C)O)cc3n([C@H](c3ccccc3)C3CCOCC3)c2c1 [Example 14, 2-[7-(Dimethyl-1,2-oxazol-4-yl)-5-[(S)-oxan-4-yl(phenyl)methyl]-5H-pyrido[3,2-b]indol-3-yl]propan-2-ol]	< 5
Cc1noc(C)c1-c1ccc2c3ncc(C(C)(C)O)cc3n([C@H](c3ccccc3F)C3CCOCC3)c2c1 [Example 15, 2-[7-(Dimethyl-1,2-oxazol-4-yl)-5-[(S)-(2-fluorophenyl)(oxan-4-yl)methyl]-5H-pyrido[3,2-b]indol-3-yl]propan-2-ol]	< 5
Cc1noc(C)c1-c1ccc2c3ncc(C(C)(C)O)cc3n([C@H](c3ccccc3)C3CCOCC3)c2c1F [Example 17, 2-[7-(Dimethyl-1,2-oxazol-4-yl)-6-fluoro-5-[(S)-oxan-4-yl(phenyl)methyl]-5H-pyrido[3,2-b]indol-3-yl]propan-2-ol]	< 5
Cc1noc(C)c1-c1cc2c(cc1F)c1ncc(C(C)(C)O)cc1n2[C@H](c1ccccc1)C1CCOCC1 [Example 18, 2-[7-(dimethyl-1,2-oxazol-4-yl)-8-fluoro-5-[(S)-oxan-4-yl(phenyl)methyl]-5H-pyrido[3,2-b]indol-3-yl]propan-2-ol]	< 5
Cc1nnn(C)c1-c1cc2c(cc1F)c1ncc(C(C)(C)O)cc1n2[C@H](c1ccccc1)C1CCOCC1 [Example 19, 2-[7-(Dimethyl-1H-1,2,3-triazol-5-yl)-8-fluoro-5-[(S)-oxan-4-yl(phenyl)methyl]-5H-pyrido[3,2-b]indol-3-yl]propan-2-ol]	< 1500
Cc1nnn(C)c1-c1ccc2c3ncc(C(C)(C)O)cc3n([C@H](c3ccccc3)C3CCOCC3)c2c1F [Example 20, 2-[7-(Dimethyl-1H-1,2,3-triazol-5-yl)-6-fluoro-5-[(S)-oxan-4-yl(phenyl)methyl]-5H-pyrido[3,2-b]indol-3-yl]propan-2-ol]	< 5
Cc1nnn(C)c1-c1cc2c(cc1F)c1ncc(C(C)(C)O)cc1n2[C@H](c1ccccc1F)C1CCOCC1 [Example 21, 2-[7-(Dimethyl-1H-1,2,3-triazol-5-yl)-8-fluoro-5-[(S)-(2-fluorophenyl)(oxan-4-yl)methyl]-5H-pyrido[3,2-b]indol-3-yl]propan-2-ol]	< 1
[2H]C([2H])([2H])c1nnn(C)c1-c1cc2c(cc1F)c1ncc(C(C)(C)O)cc1n2[C@H](c1ccccc1F)C1CCOCC1 [Example 22, 2-{8-Fluoro-5-[(S)-(2-fluorophenyl)(oxan-4-yl)methyl]-7-[4-(^2H3)methyl-1-methyl-1H-1,2,3-triazol-5-yl]-5H-pyrido[3,2-b]indol-3-yl}propan-2-ol]	< 1
Cc1nnn(C)c1-c1cc2c(cc1F)c1ncc(S(C)(=O)=O)cc1n2[C@H](c1ccccc1F)C1CCOCC1 [Example 25, 5-{8-Fluoro-5-[(S)-(2-fluorophenyl)(oxan-4-yl)methyl]-3-methanesulfonyl-5H-pyrido[3,2-b]indol-7-yl}-1,4-dimethyl-1H-1,2,3-triazole]	< 1
Cc1nnn(C)c1-c1ccc2c3ncc(S(C)(=O)=O)cc3n([C@H](c3ccccc3)C3CCOCC3)c2c1 [Example 26, 5-{3-Methanesulfonyl-5-[(S)-oxan-4-yl(phenyl)methyl]-5H-pyrido[3,2-b]indol-7-yl}-1,4-dimethyl-1H-1,2,3-triazole]	< 5

Same assay, conditions: read-out: FRET BRD4 IC50

SMILES	IC50 [nM]
[2H]C([2H])([2H])c1nnn(C)c1-c1ccc2c3ncc(C(C)(C)O)cc3n([C@H](c3ccccc3)C3CCOCC3)c2c1 [Example 16, 2-{7-[4-(^2H3)Methyl-1-methyl-1H-1,2,3-triazol-5-yl]-5-[(S)-oxan-4-yl(phenyl)methyl]-5H-pyrido[3,2-b]indol-3-yl}propan-2-ol]	< 5
